Assay results published in patent publication US20250195530A1, “POLQ INHIBITORS” (ASTRAZENECA AB, priority 2022, published 2025).
Like-named read-outs stand apart in the source and are kept apart here.

Columns and labels:
DLD-1 cells = test: Inhibition of proliferation, DLD-1 BRCA2 wt control (Cell Titre Glo 3D); format: cell-based; conditions: for IC50: Homo sapiens; for POLQ PD Prolif Lumin DLD1 mean pIC50: DLD1 BRCA2 wt
Procedure, shortened: (§1)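 DLD-1 BRCA2−/− and parental DLD-1 cells exposed to 10-point dose range (10 μM to 0.51 nM, 3-fold) in RPMI/10% FBS at 37 °C, with medium and compound replenished on day 6. Viability by Cell Titre Glo 3D luminescence at day 7 (DLD-1) or day 12 (BRCA2−/−); IC50 as concentration halving maximum signal.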

DLD-1 BRCA2−/− cells = test: Homologous recombination synthetic lethal inhibition of proliferation, DLD-1 BRCA2-/- (Cell Titre Glo 3D); format: cell-based; conditions: for IC50: Homo sapiens; for POLQ PD Prolif Lumin BRCA2 −/− mean pIC50: DLD-1 BRCA2 −/−
Procedure, shortened: as §1

[1] = DLD-1, second proliferation column, DLD-1 BRCA2 wt control, read-out: POLQ PD Prolif Lumin (converted)
[2] = DLD-1, first proliferation column, DLD-1 BRCA2-/-, read-out: POLQ PD Prolif Lumin (converted)
[3] = DLD-1, DLD1 BRCA2 wt, mean, read-out: POLQ PD Prolif Lumin DLD1 mean pIC50 (converted)
[4] = DLD-1, DLD-1 BRCA2 −/−, mean, read-out: POLQ PD Prolif Lumin BRCA2 −/− mean pIC50 (converted)

| Structure (SMILES) | IC50 (DLD-1 cells; [1]) [µM] | IC50 (DLD-1 BRCA2−/− cells; [2]) [µM] | IC50 (DLD-1 cells; [3]) [µM] | IC50 (DLD-1 BRCA2−/− cells; [4]) [µM] | other results |
| --- | --- | --- | --- | --- | --- |
| Cc1ccnc(Cn2c(-c3ccc(OCCCN4CC[C@@H](O)C4)cc3Cl)nc3c(OC4(C)CC4)ncnc32)c1 [Example T592, (R)-1-(3-(3-chloro-4-(6-(1-methylcyclopropoxy)-9-((4-methylpyridin-2-yl)methyl)-9H-purin-8-yl)phenoxy)propyl)pyrrolidin-3-ol] | > 10 | 0.2 |  |  |  |
| Cc1ccnc(Cn2c(-c3cccc(OCCCN4CC[C@@H](O)C4)c3Cl)nc3c(OC4(C)CC4)ncnc32)c1 [Example T593, (R)-1-(3-(2-chloro-3-(6-(1-methylcyclopropoxy)-9-((4-methylpyridin-2-yl)methyl)-9H-purin-8-yl)phenoxy)propyl)pyrrolidin-3-ol] | > 10 | 0.251 |  |  |  |
| Cc1ccnc(Cn2c(-c3ccc(OCCN4CCNC[C@@H]4C)cc3Cl)nc3c(OC4(C)CC4)ncnc32)c1 [Example T594, (S)-8-(2-chloro-4-(2-(2-methylpiperazin-1-yl)ethoxy)phenyl)-6-(1-methylcyclopropoxy)-9-((4-methylpyridin-2-yl)methyl)-9H-purine] | 2.51 | 0.501 |  |  |  |
| Cc1cc(C)nc(Cn2c(-c3ccc(OCCN4CCNCC4)cc3Cl)nc3c(OC4(C)CC4)ncnc32)c1 [Example T595, 8-(2-chloro-4-(2-(piperazin-1-yl)ethoxy)phenyl)-9-((4,6-dimethylpyridin-2-yl)methyl)-6-(1-methylcyclopropoxy)-9H-purine] | > 10 | 1.26 |  |  |  |
| Cc1cnc(Cn2c(-c3ccc(OCCN4CCNCC4)cc3Cl)nc3c(OC4(C)CC4)ncnc32)cc1C [Example T596, 8-(2-chloro-4-(2-(piperazin-1-yl)ethoxy)phenyl)-9-((4,5-dimethylpyridin-2-yl)methyl)-6-(1-methylcyclopropoxy)-9H-purine] | > 10 | 5.01 |  |  |  |
| Cc1ccnc(Cn2c(-c3ccc(OCCN4CCNCC4)cc3Cl)nc3c(OC4(C)CC4)ncnc32)c1C [Example T597, 8-(2-chloro-4-(2-(piperazin-1-yl)ethoxy)phenyl)-9-((3,4-dimethylpyridin-2-yl)methyl)-6-(1-methylcyclopropoxy)-9H-purine] | 6.31 | 2.51 |  |  |  |
| Cc1ccnc(Cn2c(-c3ccc(CC(=O)N4C[C@@H](C)N[C@@H](C)C4)cc3Cl)nc3c(OC4(C)CC4)ncnc32)c1 [Example T606, 2-(3-chloro-4-(6-(1-methylcyclopropoxy)-9-((4-methylpyridin-2-yl)methyl)-9H-purin-8-yl)phenyl)-1-((3R,5S)-3,5-dimethylpiperazin-1-yl)ethan-1-one] | > 10 | 0.794 |  |  |  |
| Cc1ccnc(Cn2c(-c3ccc(OCCN4CCNCC4)cc3Cl)nc3c(OC(C)(C)C)cccc32)c1 [Example T609, 4-(tert-butoxy)-2-(2-chloro-4-(2-(piperazin-1-yl)ethoxy)phenyl)-1-((4-methylpyridin-2-yl)methyl)-1H-benzo[d]imidazole] | > 10 | 1.58 |  |  |  |
| COCc1cc(OCCN2CCN(C)CC2)ccc1-c1nc2c(OC3(C)CC3)ncnc2n1Cc1ccccc1 [Example T612, 9-benzyl-8-(2-(methoxymethyl)-4-(2-(4-methylpiperazin-1-yl)ethoxy)phenyl)-6-(1-methylcyclopropoxy)-9H-purine] | > 10 | 1 |  |  |  |
| C[C@@H](CCOc1ccc(-c2nc3c(OC4(C)CC4)ncnc3n2Cc2cccc(C#N)c2)c(Cl)c1)C(=O)O [Example U8, (S)-4-(3-chloro-4-(9-(3-cyanobenzyl)-6-(1-methylcyclopropoxy)-9H-purin-8-yl)phenoxy)-2-methylbutanoic acid] |  |  | > 6.31 | 0.398 |  |
| C[C@H](CCOc1ccc(-c2nc3c(OC4(C)CC4)ncnc3n2Cc2cc(Cl)ccc2F)c(Cl)c1)C(=O)O [Example U10, (R)-4-(3-chloro-4-(9-(5-chloro-2-fluorobenzyl)-6-(1-methylcyclopropoxy)-9H-purin-8-yl)phenoxy)-2-methylbutanoic acid] |  |  | > 10 | 0.0631 |  |
| C[C@@H](CCOc1ccc(-c2nc3c(OC4(C)CC4)ncnc3n2Cc2cc(Cl)ccc2F)c(Cl)c1)C(=O)O [Example U11, (S)-4-(3-chloro-4-(9-(5-chloro-2-fluorobenzyl)-6-(1-methylcyclopropoxy)-9H-purin-8-yl)phenoxy)-2-methylbutanoic acid] |  |  | > 6.31 | 0.0501 |  |
| CC1(Oc2ncnc3c2nc(-c2cccc(OCCOCC(=O)O)c2Cl)n3Cc2cc(Cl)ccc2F)CC1 [Example U22, 2-(2-(2-chloro-3-(9-(5-chloro-2-fluorobenzyl)-6-(1-methylcyclopropoxy)-9H-purin-8-yl)phenoxy)ethoxy)acetic acid] |  |  | > 10 | 0.0501 |  |
| C[C@@H](CCOc1cccc(-c2nc3c(OC4(C)CC4)ncnc3n2Cc2cc(Cl)ccc2F)c1Cl)C(=O)O [Example U24, (S)-4-(2-chloro-3-(9-(5-chloro-2-fluorobenzyl)-6-(1-methylcyclopropoxy)-9H-purin-8-yl)phenoxy)-2-methylbutanoic acid] |  |  | > 10 | 0.0126 |  |
| C[C@H](CCOc1cccc(-c2nc3c(OC4(C)CC4)ncnc3n2Cc2cc(Cl)ccc2F)c1Cl)C(=O)O [Example U26, (R)-4-(2-chloro-3-(9-(5-chloro-2-fluorobenzyl)-6-(1-methylcyclopropoxy)-9H-purin-8-yl)phenoxy)-2-methylbutanoic acid] |  |  | > 10 | 0.0251 |  |
| CC(C)(CCOc1cccc(-c2nc3c(OC4(C)CC4)ncnc3n2Cc2cccc(Cl)c2)c1Cl)CC(=O)O [Example U28, 5-(2-chloro-3-(9-(3-chlorobenzyl)-6-(1-methylcyclopropoxy)-9H-purin-8-yl)phenoxy)-3,3-dimethylpentanoic acid] |  |  | > 10 | 0.0794 |  |
| COc1ccc(Cl)cc1Cn1c(-c2cccc(OCCCOCC(=O)O)c2Cl)nc2c(OC3(C)CC3)ncnc21 [Example U30, 2-(3-(2-chloro-3-(9-(5-chloro-2-methoxybenzyl)-6-(1-methylcyclopropoxy)-9H-purin-8-yl)phenoxy)propoxy)acetic acid] |  |  | > 10 | 0.02 |  |
| COc1ccc(Cl)cc1Cn1c(-c2ccc(OCCC(C)(C)C(=O)O)cc2Cl)nc2c(OC3(C)CC3)ncnc21 [Example U31, 4-(3-chloro-4-(9-(5-chloro-2-methoxybenzyl)-6-(1-methylcyclopropoxy)-9H-purin-8-yl)phenoxy)-2,2-dimethylbutanoic acid] |  |  | > 7.94 | 0.0501 |  |
| COc1ccc(Cl)cc1Cn1c(-c2cccc(O[C@H]3CC[C@H](C(=O)O)CC3)c2Cl)nc2c(OC3(C)CC3)ncnc21 [Example U38, (1r,4r)-4-(2-chloro-3-(9-(5-chloro-2-methoxybenzyl)-6-(1-methylcyclopropoxy)-9H-purin-8-yl)phenoxy)cyclohexane-1-carboxylic acid] |  |  |  |  | POLQ PD Prolif Lumin DLD1 mean pIC50 (DLD-1 cells; mean): 5.1; POLQ PD Prolif Lumin BRCA2 −/− mean pIC50 (DLD-1 BRCA2−/− cells; mean): 7.5 |
| CC1(Oc2ncnc3c2nc(-c2cc(F)cc(OCCC(=O)O)c2Cl)n3Cc2cccc(Cl)c2)CC1 [Example U39, 3-(2-chloro-3-(9-(3-chlorobenzyl)-6-(1-methylcyclopropoxy)-9H-purin-8-yl)-5-fluorophenoxy)propanoic acid] |  |  | > 10 | 0.0126 |  |
| COc1ccc(Cl)cc1Cn1c(-c2ccc(O[C@H]3CC[C@@H](C(=O)O)CC3)cc2Cl)nc2c(OC3(C)CC3)ncnc21 [Example U40, (1s,4s)-4-(3-chloro-4-(9-(5-chloro-2-methoxybenzyl)-6-(1-methylcyclopropoxy)-9H-purin-8-yl)phenoxy)cyclohexane-1-carboxylic acid] |  |  |  |  | POLQ PD Prolif Lumin DLD1 mean pIC50 (DLD-1 cells; mean): <5.1; POLQ PD Prolif Lumin BRCA2 −/− mean pIC50 (DLD-1 BRCA2−/− cells; mean): 7 |
| COc1ccc(Cl)cc1Cn1c(-c2ccc(O[C@H]3CC[C@H](C(=O)O)CC3)cc2Cl)nc2c(OC3(C)CC3)ncnc21 [Example U43, (1r,4r)-4-(3-chloro-4-(9-(5-chloro-2-methoxybenzyl)-6-(1-methylcyclopropoxy)-9H-purin-8-yl)phenoxy)cyclohexane-1-carboxylic acid] |  |  |  |  | POLQ PD Prolif Lumin DLD1 mean pIC50 (DLD-1 cells; mean): <5.0; POLQ PD Prolif Lumin BRCA2 −/− mean pIC50 (DLD-1 BRCA2−/− cells; mean): 7.2 |
| COc1ccc(Cl)cc1Cn1c(-c2ccc(OCCCC(C)(C)C(=O)O)cc2Cl)nc2c(OC3(C)CC3)ncnc21 [Example U47, 5-(3-chloro-4-(9-(5-chloro-2-methoxybenzyl)-6-(1-methylcyclopropoxy)-9H-purin-8-yl)phenoxy)-2,2-dimethylpentanoic acid] |  |  | 6.31 | 0.0316 |  |
| COc1ccc(Cl)cc1Cn1c(-c2ccc(OCCOCC(=O)O)cc2Cl)nc2c(OC3(C)CC3)ncnc21 [Example U48, 2-(2-(3-chloro-4-(9-(5-chloro-2-methoxybenzyl)-6-(1-methylcyclopropoxy)-9H-purin-8-yl)phenoxy)ethoxy)acetic acid] |  |  | > 10 | 0.631 |  |
| COc1ccc(Cl)cc1Cn1c(-c2cccc(O[C@H]3CC[C@@H](C(=O)O)CC3)c2Cl)nc2c(OC3(C)CC3)ncnc21 [Example U50, (1s,4s)-4-(2-chloro-3-(9-(5-chloro-2-methoxybenzyl)-6-(1-methylcyclopropoxy)-9H-purin-8-yl)phenoxy)cyclohexane-1-carboxylic acid] |  |  |  |  | POLQ PD Prolif Lumin DLD1 mean pIC50 (DLD-1 cells; mean): <5.0; POLQ PD Prolif Lumin BRCA2 −/− mean pIC50 (DLD-1 BRCA2−/− cells; mean): 7.6 |
| COc1ccc(Cl)cc1Cn1c(-c2cccc(O[C@H]3C[C@H](C(=O)O)C3)c2Cl)nc2c(OC3(C)CC3)ncnc21 [Example U51, (1r,3r)-3-(2-chloro-3-(9-(5-chloro-2-methoxybenzyl)-6-(1-methylcyclopropoxy)-9H-purin-8-yl)phenoxy)cyclobutane-1-carboxylic acid] |  |  |  |  | POLQ PD Prolif Lumin DLD1 mean pIC50 (DLD-1 cells; mean): <5.0; POLQ PD Prolif Lumin BRCA2 −/− mean pIC50 (DLD-1 BRCA2−/− cells; mean): 7.2 |
